From US9346839B2
“Also recorded” adds a separate entry of the source. Read-outs that look alike come from different tables or passages of the source.

Columns and labels:
[1] = biological target: ABAD (Homo sapiens (Human), UniProt Q99714); experiment: Inhibition of reduction of S-acetoacetyl-CoA (SAAC) by ABAD (ABAD enzymatic activity); format: biochemical
Procedure: Assay of ABAD Enzymatic Activity. […] Before the assay, all the assay components except SAAC were pre-incubated for 5 minutes, and the reaction started with the addition of SAAC into the reaction mix. The reaction was carried out for a total 6 minutes at room temperature under steady-state conditions, and the decrease of NADH absorbance at 340 nm was determined every 10 seconds. Kinetic data were analyzed by PRISM (Scitech, San Diego, Calif.) to determine IC50 values and Ki.

[2] = test system: mitochondrial permeability transition pore (mPTP); experiment: Mitochondria swelling assay in response to Ca2+; design: species or system mice; details: for calcium-mediated mitochondrial swelling: with calcium
Procedure: Isolation of Brain Mitochondria. Brain from mice without white matter was used for mitochondrial isolation. Brain was homogenized in 9 ml of ice-cold EB buffer (1 mmol EDTA, 1-6 mg/ml BSA) using a Dounce homogenizer until no particles could be seen. Homogenates were centrifuged at 1300×g for 5 minutes. Supernatant from this fraction was carefully laid on top of a 15% PERCOLL solution (10 ml) and then centrifuged at 16000 RPM for 10 minutes. The pellet was carefully mixed with 9 ml of mitochondrial buffer (4.098% D-mannitol, 2.56% sucrose, 0.034% K2HPO4, pH 7.3-7.4) and 200 μl of 1% digitonin. After 5 minutes incubation on ice, the mixture was centrifuged at 8000 RPM for 10 minutes. Mitochondrial pellet was washed once with mitochondrial buffer. Subsequently, the mitochondrial pellet was resuspended in 100 μl of mitochondrial buffer and was used for further experiments.
Mitochondria Swelling Assay. A proper amount of mitochondria was resuspended into 1 ml swelling assay buffer (150 mM KCl, 2 mM KH2PO4, 10 mM HEPES, pH 7.4) and energized by 1 mM glutamate and 1 mM malate. Calcium at varying concentrations was added into the assay buffer to trigger mitochondrial swelling. Mitochondrial permeability transition was determined by studying the rate of change in absorbance at 540 nm via a spectrophotometer.
Mitochondrial Swelling in Response to Ca^2+. Given that the Compounds 4, 8 and 15 could inhibit ABAD activity, it was determined whether these same compounds could decrease mitochondrial permeability transition pore (mPTP) formation.

[3] = test system: SK-N-SH cells; experiment: ATP levels in Aβ-treated cells; format: cell-based; details: for ATP levels in Aβ-treated cells: 5 μM Aβ1-42 plus 1 μM compound; for ATP levels, inhibitor alone: without Aβ
Procedure: Forty-eight hour later, ATP levels (μmol mg^−1 protein) were measured in cell lysates.
Adenosine-5′-Triphosphate (ATP) Levels. To determine the effect of ABAD inhibitors on Aβ-induced impairment in energy metabolism, ATP levels were measured. […] ATP levels were measured in the cell lysates. […] Therefore, ABAD inhibitors can block mitochondrial dysfunction mediated by Aβ.

[4] = test system: Cells; experiment: MTT reduction assay (cell survival and toxicity); format: cell-based; details: 1, 10, 50, 100 μM for 48 to 66 hours, compared to vehicle
Procedure: Cell Survival and Toxicity Assay. The MTT (3-(4,5-dimethylthiazol-2-yl)-2,5-diphenyltetrazolium bromide) assay, which is widely used to measure cell proliferation and to screen for anticancer drugs, was used for assessing cell viability. Cells were treated with a range of ABAD compounds at 1, 10, 50, and 100 μM for 48 hours and then subjected to MTT reduction assay following the manufacture's instruction.
Effect of ABAD Inhibitor on Cell Survival and Toxicity. The effect of ABAD inhibitors on cell viability and toxicity was assessed using MTT reduction assay and trypan blue exclusion, which are widely used to assess cell survival and toxicity and to screen for drugs toxicity. Cells were treated with a range of concentrations of ABAD compound (4 and 8) at 1, 10, 50, 100 μM for 48 to 66 hours.

[5] = test system: mAPP mice; experiment: Morris water maze learning and memory in AD transgenic mice; format: in vivo; details: for learning memory: i.p. injection; for swim strategy used to locate the hidden platform: representative swim paths, mAPP mice; for latency to find the hidden platform: treated AD mice compared to untreated AD mice; for number of crossings at the target location / percent of time spent in the target quadrant: treated mAPP mice vs untreated mAPP mice, probe trial
Procedure: Wild-type mice (Non Tg) were also administered Compound 8 (n=5) and vehicle (n=5). Each mouse was given four 60-second trials per day for six consecutive days to find the hidden platform in a Morris water maze.
Wild-type mice were also administered Compound 8 […]. Each mouse was given four 60-second trials per day for seven consecutive days to find the hidden platform in a Morris water maze.
Each mouse was given four 60-second trials per day for six consecutive days to find the hidden platform in a Morris water maze.
In addition, the effect of Compounds 4 and 8 on learning and memory of Alzheimer's Disease (AD) transgenic mice was evaluated. Six month and 9-14 month-old transgenic mice overexpressing a mutated form of the human amyloid precursor protein (mAPP mice) and their wild-type (non Tg) littermates were used in this study. […] Moreover, performance in a spatial MWM trial was evaluated using crossings over the platform area (an index of memory precision; Morris (1984) J. Neurosci. Methods 11:47-60), percent of time spent in target quadrant (an index of memory retrieval; Morris (1984) J. Neurosci. Methods 11:47-60), and swim paths.

[6] = test system: mAPP mice; experiment: Hippocampal long-term potentiation (LTP) in slices from treated mice; format: in vivo
Procedure: LTP was induced by theta-burst stimulation (TBS) 20 minutes after baseline recordings in hippocampal slices from Non-Tg mice treated with vehicle (n=9 slices from 3 mice), Non-Tg mice treated with Compound 8 (n=9 slices from 3 mice), mAPP mice treated with vehicle (n=8 slices from 3 mice), and mAPP mice treated with Compound 8 (n=8 slices from 3 mice). LTP is expressed as percentage potentiation of baseline (100%) (FIG. 5A).
LTP is expressed as percentage potentiation of baseline (100%) (FIG. 7A).
Synaptic failure in AD is largely reflected by impaired long-term synaptic plasticity in terms of long-term potentiation (LTP). […] Representative field excitatory post-synaptic potentials (fEPSP) waveforms are provided in FIGS. 5A and 7A and the residual potentiation from fEPSP slopes occurring over the last 5 minutes of LTP recording are provided in FIGS. 5B and 7B.

[7] = Solubility in solvents during method development; format: physicochemical
Procedure: Method Development. During the development of a detection method for analytes 4, 8 and 15, multiple solvents were tested to find the optimal mobile phase. […] Acetonitrile was selected for better peak shape and compatibility with serum/brain protein precipitation. Compounds 8 and 15 were chosen as IS, because of their structural similarity. Selected reaction monitoring (SRM) acquisitions were used for sensitivity and extended dynamic range. The cone voltage and collision energy were optimized for 4, 8 and 15 and the IS by continuously infusing a mixture of the two. The optimum cone voltage was 30V.

[8] = Stability of standards under temperature and storage conditions; format: physicochemical; details: standards in methanol; 25° C. short-term, −20° C. for twenty days
Procedure: Stability. The stability of compounds 4, 8, and 15 was evaluated in ACSF, plasma, and brain matrices under various temperature and storage conditions. Stability at room temperature was studied by analyzing samples at 25° C. for 2 and 4 hours and stability at −80° C. was checked for one month. Samples were analyzed after three (−80° C. to 25° C.) freeze-thaw cycles. Stability studies were performed at three concentrations.
Stability The stability of ABAD compounds were determined under different temperature and storage conditions. 4, 8 and 15 standards were dissolved in methanol and were subjected short-term exposure at 25° C. for and 4 hours long-term storage conditions were assessed at −20° C. for twenty days.

[9] = Table 6, reduction of SAAC by ABAD, read-out: IC50
[10] = Table 6, reduction of SAAC by ABAD, read-out: Ki
[11] = Table 7, read-out: ABAD Enzymatic Activity IC50
[12] = Table 7, read-out: ABAD Enzymatic Activity Ki

ABAD, sequence (Q99714 whole entry): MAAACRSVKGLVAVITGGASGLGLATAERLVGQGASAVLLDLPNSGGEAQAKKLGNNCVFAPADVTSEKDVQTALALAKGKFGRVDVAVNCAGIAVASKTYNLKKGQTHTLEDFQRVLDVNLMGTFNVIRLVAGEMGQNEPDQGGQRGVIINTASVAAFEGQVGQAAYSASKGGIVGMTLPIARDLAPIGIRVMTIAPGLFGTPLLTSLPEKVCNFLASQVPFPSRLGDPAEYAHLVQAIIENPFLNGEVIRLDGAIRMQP

| SMILES | IC50 [1, 9] [µM] | Ki [1, 10] [µM] | IC50 [1, 11] [µM] | Ki [1, 12] [µM] | inhibitory effect on SAAC reduction by ABAD ([1]; in words) | calcium-mediated mitochondrial swelling [2] | mitochondrial swelling without calcium [2] | ATP levels in Aβ-treated cells [3] | ATP levels, inhibitor alone [3] | MTT reduction [4] | swim strategy used to locate the hidden platform [5] | latency to find the hidden platform [5] | number of crossings at the target location [5] | percent of time spent in the target quadrant [5] | hippocampal long-term potentiation (LTP) [6] | solubility in methanol or acetonitrile [7] | solubility in water [7] | stability, variability across all samples [8] | other results |
| --- | --- | --- | --- | --- | --- | --- | --- | --- | --- | --- | --- | --- | --- | --- | --- | --- | --- | --- | --- |
| COC(=O)c1cc([C@H](Nc2nc3ccc(OC)cc3s2)P(=O)(OC)OC)ccc1O [Compound 4, Methyl 5-((dimethoxyphosphoryl)((6-methoxybenzo[d]thiazol-2-yl)amino)methyl)-2-hydroxybenzoate] | 19.6 | 5.5 | 341 ± 68.7 | 96.6 ± 19.4 | modest inhibitory effect | antagonized calcium-mediated mitochondrial swelling | did not affect mitochondrial swelling without calcium | rescued ATP levels | comparable to cells treated with vehicle alone without Aβ | did not exhibit decreased MTT reduction | improvement in the swim strategy | significantly shorter latency | significantly more | significantly more | impairments were diminished; also recorded: protective effects | dissolved readily in methanol or acetonitrile | dissolved partially in water | less than 10 % (RSD) | learning memory ([5]; 9-months old mAPP mice): improves learning memory |
| COc1ccc2nc(N[C@@H](c3ccc(F)cc3)P(=O)(OC)OC)sc2c1 [Compound 15, Dimethyl ((4-fluorophenyl)((6-methoxybenzo[d]thiazol-2-yl)amino)methyl)phosphonate] |  |  | 1260 ± 199 | 356 ± 56.1 |  | antagonized calcium-mediated mitochondrial swelling | did not affect mitochondrial swelling without calcium | rescued ATP levels | comparable to cells treated with vehicle alone without Aβ |  |  |  |  |  |  | dissolved readily in methanol or acetonitrile | dissolved partially in water | less than 10 % (RSD) | inhibition of SAAC reduction by ABAD ([1]; at 10 μM): did not inhibit; inhibitory effect on SAAC reduction by ABAD ([1]; at 100 or 400 μM): slight inhibitory effect |
| COc1ccc2nc(N[C@@H](c3ccc(O)cc3)P(=O)(OC)OC)sc2c1 (racemic) [Compound 8, Dimethyl ((4-hydroxyphenyl)((6-methoxybenzo[d]thiazol-2-yl)amino)methyl)phosphonate] | 259 | 70.6 | 52.7 | 14.9 | most potent inhibitory effect | antagonized calcium-mediated mitochondrial swelling | did not affect mitochondrial swelling without calcium | rescued ATP levels | comparable to cells treated with vehicle alone without Aβ | did not exhibit decreased MTT reduction | improvement in the swim strategy | significantly shorter latency | significantly more | significantly more | impairments were diminished; also recorded: protective effects | dissolved readily in methanol or acetonitrile | dissolved partially in water | less than 10 % (RSD) | learning memory ([5]; 6-months old mAPP mice): improves learning memory; learning memory ([5]; 9-14-months old mAPP mice): improves learning memory |
